pIC50: −log10 of the molar value.
How the values were obtained:
15-PGDH/HPGD = molecular target: T1, 15-PGDH/HPGD (Homo sapiens, UniProt P15428); assay: hPGDH inhibitor screening biochemical assay; details: 10 nM enzyme, 15 μM PGE2, 0.25 mM NAD, fluorescence ex/em 340/485 nm
T1 construct: purchased R&D System 5660-DH
T1 sequence (P15428 1-266): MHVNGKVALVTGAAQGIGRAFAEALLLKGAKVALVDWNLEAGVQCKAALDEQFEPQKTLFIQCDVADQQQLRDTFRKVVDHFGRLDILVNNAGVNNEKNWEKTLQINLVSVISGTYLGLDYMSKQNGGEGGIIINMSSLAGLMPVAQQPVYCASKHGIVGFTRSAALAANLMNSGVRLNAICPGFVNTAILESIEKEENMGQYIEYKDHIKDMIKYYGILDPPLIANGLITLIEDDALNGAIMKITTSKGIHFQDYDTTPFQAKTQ
Procedure, shortened: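 Recombinant human 15-PGDH (10 nM) was preincubated with compound for 10 min at 37° C in 50 mM Tris-HCl pH 7.5 with 0.01% Tween 20. Reaction with 15 μM PGE2 and 0.25 mM NAD+ ran 10 min at room temperature, read by fluorescence at ex/em 340/485 nm. IC50 was derived from 10-point curves, relative to 1% DMSO.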

15-PGDH = molecular target: T2, 15-PGDH (Homo sapiens, UniProt P15428); assay: A549 cell based assay: PGE2 in supernatant after IL-1β (HTRF); details: A549 cells, fold induction of PGE2, IL-1β plus test article versus IL-1β only
T2 construct: 15-PGDH is highly expressed in resting human lung adenocarcinoma cells (A549); endogenous in cells; host or cells: A549
T2 sequence (P15428 1-266): T1 sequence (P15428 1-266)
Experimental: Cell Based Assay: 15-PGDH is highly expressed in resting human lung adenocarcinoma cells (A549) (Tong et al., 2006), and this cell line was used to assess 15-PGDH inhibition by MF-300Na in vitro.
In this assay, A549 cells are treated with interleukin (IL) 1β, which induces the expression of cycloxygenase-2 and the synthesis of PGE2 (Tong et al., 2006). In the studies evaluating test articles, thirty thousand A549 cells were seeded in 100 μL F12K completed media and incubated for 24 hours at 37° C. with 5% CO2 before being serum-starved for 24 hours. On the day of the experiment, buffer was changed to complete medium, and cells were incubated for 30 minutes with compounds prior to the addition of IL-1β (final concentration of 0.1-0.25 ng/mL) overnight at 37° C. with 5% CO2. Each concentration was run in triplicate. […] The PGE2 in the supernatant was detected and quantified using a Cisbio HTRF technology (Homogeneous Time-Resolved Fluorescence) kit (62P2APEG-62P2APEH) according to the manufacturer's recommendations, quantifying the fold induction of PGE2 of cells treated with IL-1β plus test article, versus treatment with IL-1β only.

| pIC50 (15-PGDH/HPGD) | PGE2 - HTRF over IL-β induction at 0.001 μM (15-PGDH) | PGE2 - HTRF over IL-β induction at 0.01 μM (15-PGDH) | PGE2 - HTRF over IL-β induction at 0.1 μM (15-PGDH) | PGE2 - HTRF over IL-β induction at 1 μM (15-PGDH) | Structure (SMILES) |
| --- | --- | --- | --- | --- | --- |
| > 7.00 | 2.17 | 3.03 | 3.96 | 3.96 | O=C(c1cnc2c(ccn2-c2ccc(-c3nnc(C4CC4)[nH]3)cc2)c1)N1CCC(F)(F)CC1 [Compound B-72] |
| > 7.00 | 2.36 | 2.83 | 2.86 | 2.4 | O=C(c1cnc2c(ccn2-c2ccc(N3CCOC3=O)nc2)c1)N1CCC[C@H](C(F)(F)F)C1 [Compound B-80] |

From patent US20240294519A1, “PYRROLO[2,3-b]PYRIDINE PGDH INHIBITORS AND METHODS OF MAKING AND USING” (EPIRIUM BIO INC., priority 2021, published 2024)
